“Also recorded” adds a separate entry of the source. Where a SMILES comes first, the peptide text is derived from it.
System: Townes SCD mice
Test: Efficacy study of hepcidin mimetics in a mouse model of sickle cell disease (CBC, serum hemolysis biomarkers, spleen and liver weights)
Assay type: in vivo
Details: for % Retics / Abs Retics / HCT / HGB / MCH / MCHC / MCV / RBC / LDH / Total bilirubin: 4 weeks, mean ± SD; for LDH / Total bilirubin: serum
Method: Compound 46, a hepcidin mimetic, was administered subcutaneously at 1.0 mg/kg (group 3, N=9) or 2.5 mg/kg (group 4, N=9) in Townes SCD mice. 36 Townes SCD and 6 129S1/SvlmJ (wild-type), female mice, 5 weeks old upon delivery. A control group of wild-type mice (groups 1, N=6) was treated with vehicle as well as another SCD mice (group 2, N=9). All mice were dosed three times per week (TIW). All mice were maintained on an iron-adjusted diet (TD.140258, 35 ppm iron) throughout the study. Collections and necropsies were performed 24 hours post-last dose of compound or vehicle. After 4 weeks on study, animals from each group were euthanized, EDTA whole blood collected for CBC and serum was collected for hemolysis biomarker analysis. Spleens and livers were weighed at terminus. Liver, spleen, kidney, heart and brain were collected for future analysis. Serum and urine were collected to analyze chemistry markers, such as bilirubin, LDH (lactate dehydrogenase), haptoglobin, urine creatinine, urine total protein and urine urea nitrogen.
As shown in FIG. 4A and FIG. 4B, reticulocytes were counted both with the automated analyzer as well as manually from a new methylene blue stained blood smear by counting the number of positive stained cells encountered in 500 erythrocytes and calculating the percentage.

[1] = SCD mice, compared to vehicle, across doses
[2] = Townes SCD mice, Dose 1 (1.0 mg/kg s.c. TIW)
[3] = Townes SCD mice, Dose 2.5 (2.5 mg/kg s.c. TIW)

CCCCCCCCCCCCCCCC(=O)N[C@@H](CCC(=O)NCCCC[C@@H]1NC(=O)[C@H]([C@@H](C)CC)NC(=O)[C@@H](NC(=O)[C@@H]2CCCN2C(=O)[C@H](Cc2ccccc2)NC(=O)[C@H](Cc2cnc[nH]2)NC(=O)[C@@H](NC(=O)[C@H](CCC(=O)O)NC(=O)CC(C)C)[C@@H](C)O)CSSC[C@@H](C(=O)N[C@@H](CCCCN)C(N)=O)NC(=O)CNC(=O)[C@H](CCCCN)NC(=O)[C@H](CO)NC(=O)[C@H](CCCNC(=N)N)NC(=O)[C@@H]2CCCN2C(=O)[C@H](CCC(=O)O)NC(=O)[C@H](Cc2ccccc2)NC1=O)C(=O)O [Compound 46, Isovaleric_Acid-ETHFPCI(K(IsoGlu_Palm))FEPRSKGCK-NH2] (HELM PEPTIDE1{[CC(C)CC(=O)[*:2]].E.T.H.F.P.C.I.K.F.E.P.R.S.K.G.C.K.[am]}|PEPTIDE2{[CCCCCCCCCCCCCCCC(=O)[*:2]].[gGlu]}$PEPTIDE1,PEPTIDE2,9:R3-2:R2|PEPTIDE1,PEPTIDE1,7:R3-17:R3$$$V2.0)
RBC count (in words) (SCD mice, 2.5 mg/kg dose): significantly reduced | Percent of reticulocytes (in words) (SCD mice, 2.5 mg/kg dose, compared to vehicle control): decreased percent of reticulocytes significantly | Mean corpuscular hemoglobin concentration (MCHC) (in words) (SCD mice, 2.5 mg/kg, compared to vehicle control): significant increase in MCHC | Hematocrit (HCT) (in words) (SCD mice, across doses): significant reduction of HCT in a dose dependent manner | Lymphocyte count (in words) (SCD mice, across doses): significant WBC and lymphocyte reduction in a dose dependent manner; also recorded: alleviated elevated white blood cell (WBC) and lymphocytes counts | Neutrophil count (in words) (SCD mice, across doses): significantly decreased neutrophil count in a dose dependent manner; also recorded: alleviated elevated neutrophil and monocyte counts | Serum lactate dehydrogenase (LDH) (in words) (SCD mice, across doses): significantly reduced both parameters in a dose dependent manner | Serum total bilirubin (in words) (SCD mice, across doses): significantly reduced both parameters in a dose dependent manner | White blood cell (WBC) count (in words) (SCD mice, across doses): significant WBC and lymphocyte reduction in a dose dependent manner; also recorded: alleviated elevated white blood cell (WBC) and lymphocytes counts | Mean corpuscular volume (MCV) (in words) (SCD mice, across doses, compared to the vehicle group): significant reduction of MCV in a dose dependent manner | Hgb level (in words) (SCD mice, all three dose groups): significantly reduced in all three dose groups | Mean corpuscular hemoglobin (MCH) (in words) (SCD mice, compared to vehicle control): significant reduction in MCH | Liver to body weight ratios (in words) [1]: significantly lower in a dose dependent manner | Liver weight / liver size (in words) [1]: significantly lower in a dose dependent manner; also recorded: reduces liver size | Spleen to body weight ratios (in words) [1]: significantly and dose-dependently lower | Spleen weights / spleen size (in words) [1]: significantly and dose-dependently lower; also recorded: reduces spleen size | Monocyte count (in words) (Townes SCD mice): alleviated elevated neutrophil and monocyte counts | % Retics [2]: 65.78% | Abs Retics [2]: 2612 K/uL | HCT [2]: 29.62% | HGB [2]: 5.89 g/dL | MCH [2]: 9.89 pg | MCHC [2]: 19.82 g/dL | MCV [2]: 50.11 fL | RBC [2]: 5.94 M/uL | % Retics [3]: 50.33% | Abs Retics [3]: 1195 K/uL | HCT [3]: 16.27% | HGB [3]: 4.39 g/dL | MCH [3]: 9.82 pg | MCHC [3]: 23.22 g/dL | MCV [3]: 42.56 fL | RBC [3]: 4.49 M/uL | LDH [2]: 610.6 U/L | Total bilirubin [2]: 2.16 mg/dL | LDH [3]: 372.3 U/L | Total bilirubin [3]: 1.13 mg/dL

Reference: patent publication US20250360187A1, “HEPCIDIN MIMETICS FOR TREATMENT OF SICKLE CELL DISEASE” (Protagonist Therapeutics, Inc., priority 2022, published 2025)
